Like-named read-outs stand apart in the source and are kept apart here.
What was measured:
rat ventricular myocytes = assay: Contractile function of individual ventricular myocytes (line scan camera edge detection, paced at 0.5 Hz); type: cell-based; settings: for +dL/dtmax, maximal rate of shortening / -dL/dtmax, maximal rate of relaxation / DS, duration of shortening / LC, maximum length change (shortening) with contraction / TPS, time-to-peak shortening / TR, time to 75% relaxation: mean ± SE; for inhibition at 0.2 µM / activation at 0.2 µM: ISO at 0.2 μM
Procedure: Primary cultures of adult rat ventricular myocytes were prepared essentially according to previously described methods (Romano et al., Am. J. Physiol. 257:H1088 (1989)). Two male Sprague-Dawley rats (Charles River, Wilmington, Mass. or Harlan, Indianapolis, Ind.) were decapitated, and the hearts were rapidly excised and constant pressure (70 cm H2) and nonrecirculated) perfused for 10 minutes through the aortas with filtered (0.45 μm membrane filter) perfusing solution (NaCl, 118 mM; glucose, 10 mM; NaHCO3 25 mM; KCl, 4.69 mM; MgSO4 1.18 mM; and KH2 PO4, 1.18 mM; (pH 7.4)), to which […] was added, at 37° C. After equilibration, the hearts were constant pressure perfused with fresh physiological saline ("PS") containing no added Ca^2+ until spontaneous contractions ceased (i.e., ~30 seconds). The hearts were then perfused for 4-10 minutes in a nonrecirculating manner with PS containing 0.73 mg/ml collagenase, 0.16 mg/ml hyaluronidase, 1 mg/ml recrystallized bovine serum albumin ("BSA") and 48.4 μM Ca^2+ at a rate of 3-4 ml/min/heart. Ventricles, free of atria, were removed from the perfusion system, cut into 8 pieces and placed in a 50 ml Erlenmeyer flask with 5 ml of PS containing 0.73 mg/ml collagenase, 0.16 mg/ml hyaluronidase, 2.5 mg/ml BSA, and 50 μM Ca^2+ (incubation solution). The flask was gently shaken (40 cycles/min) in a reciprocating water bath with continuous gassing (95% O2, 5% CO2) for 7 minutes at 37° C. The incubation solution was aspirated and this shaking procedure was repeated with fresh incubation solution 3-5 times depending on the likelihood that the tissue was ready to dissociate. After the final incubation period, the solution was aspirated and replaced with 10 ml of fresh incubation solution. The flask was then shaken rapidly (120 cycles/min) for 10 minutes with gassing to dissociate the myocytes. The flask contents were filtered through a 250 μm nylon mesh into a 50 ml polypropylene centrifuge tube, to which 40 ml of PS containing 5.95 mg/ml BSA and 99.7 μm Ca^2+ (wash solution) was gradually added.
The myocytes were allowed to settle for 15 minutes, and the upper two thirds of the wash solution was aspirated. Upon the addition of 30-35 ml of wash solution, this settling step was repeated. The wash solution was aspirated and the myocyte pellet was resuspended in 10 ml of minimum essential medium ("MEM"). The myocyte suspension was allowed to settle for 5 minutes and then brought to a final volume of 22 ml with MEM. Two milliliters of the myocyte suspension was seeded onto each of 60 mm culture dishes containing 2 ml of MEM.
The contractile function of individual myocytes was assessed by dispersing 50-100 cells in a 506 μl myocyte chamber (11×23×2 mm deep). The chamber (FIG. 1) was continuously suffused (850 μl/min) with fresh suffusion solution ("SS") in mM: 136.4 NaCl, 4.7 KCl, 1.0 CaCl2, 10 hydroxyethylpiperzine-ethanesulfonicacid (HEPES), 1.0 NaHCO3, 1.2 MgSO4, 1.2 KH2 PO4, 10 glucose, 0.6 ascorbate, 1.0 pyruvate) at 20° C. The chamber was mounted on an inverted microscope stage and contained platinum wire electrodes for initiating myocyte contraction at 0.5 Hz (voltage 10% above threshold for 5 msec duration).
The image of the myocyte was projected via an inverted microscope at 300× onto a line scan camera (Fairchild, Model 1600R) containing a linear array (1×3456) of photodiodes. When aligned with the longitudinal axis of the cell the camera detected the movement of the 2 ends of the myocyte upon contraction (shortening and relengthening). […] When the myocyte was transilluminated, both ends of the cell were easily discriminated. Myocyte length and length change with respect to time for a single contraction was measured by determining the pixels in which the appropriate transitions between light and dark occurred. The line scan camera was calibrated with a stage micrometer scaled in 10 μm divisions. The signals from the camera were directed to a Hewlett Packard computer (Model Vectra RS/20C). […]

[1] = system: ventricular myocyte membrane adenylyl cyclase; assay: Adenylyl cyclase activity of ventricular myocyte membranes; type: biochemical, rat
Procedure: After a 3-4 hour incubation period, myocytes were harvested by placing the culture dishes on ice; aspirating and discarding the culture medium; scraping the attached cells into 1 ml of ice cold buffer (pH 7.4) containing 10 mM HEPES and 1 mM dithiothreitol (DTT); and transferring the mixture to a 40 ml centrifuge tube. The culture dishes were rinsed twice with buffer, and the rinses were added to the centrifuge tube. The myocytes were centrifuged at 45,000 x g for 45 minutes and the supernatant was discarded. The pellet was resuspended in 40 mM HEPES (pH 7.4) to yield 3.5-4 mg protein/ml and homogenized with a small clearance Dounce tissue grinder (8 strokes). The membranes were centrifugated as described above, resuspended (3-4 mg protein/ml) in 40 mM HEPES (pH 7.4), and assayed for adenylyl cyclase activity immediately or stored at -80° C. and assayed within 10 days.
The assay system used to measure adenylyl cyclase activity minimizes the formation of endogenous adenosine. The assay used was essentially as described by Romano et al. (supra). Myocyte membranes (15-25 μg protein) were incubated in 50 μl of a buffer containing 40 mM HEPES (pH 7.4), 5 mM MgCl2, 1 mM DTT, 5.5 mM KCl, 0.1 mM 2'-deoxy-cAMP (dcAMP), 0.1 mM 2'-deoxy ATP (dATP), 20 mM phosphoenolpyruvate, 2 units pyruvate kinase, 0.25 units adenosine deaminase, 1 mM ascorbic acid, 100 mM NaCl, 0.1 mM ethyleneglycol-bis (β-aminoethylether) N,N,N',N',-tetroaceticacid (EGTA), 10 μM guanosine 5'-triphosphate (GTP), and ~2×10^6 counts/minutes of [α-^32 P]dATP for 20 minutes at 30° C. The reaction was stopped by adding 40 μl of a solution containing 2% sodium dodecyl sulfate (SDS), 45 mM ATP, 1.3 mM cAMP, and [^3 H]dcAMP (~4000 count/min) and by boiling for 2 minutes.

[2] = Rattus norvegicus, Ventricular myocyte, read-out: increase in +dL/dtmax
[3] = Rattus norvegicus, Ventricular myocyte, read-out: increase in LC
[4] = Rattus norvegicus, Ventricular myocyte, read-out: increase in TPS
[5] = Rattus norvegicus, Ventricular myocyte, read-out: increase in TR
[6] = Table 4, CGS-21680 10^-4 M, cumulative dose-response, every 10 min, N = 6
[7] = Table 4, CGS-21680 10^-5 M, cumulative dose-response, every 10 min, N = 6
[8] = Table 4, CGS-21680 10^-6 M, cumulative dose-response, every 10 min, N = 9
[9] = Table 4, CGS-21680 10^-7 M, cumulative dose-response, every 10 min, N = 9
[10] = Table 4, CGS-21680 10^-8 M, cumulative dose-response, every 10 min, N = 8
[11] = Table 5, CGS-21680 and/or CGS-15943 at 10^-5 M, 10 min, N = 6
[12] = ISO at 0.1 μM in the presence of 1 μM PIA
[13] = Table 2, 0.2 μM ISO, 2 μM PIA, 0.2 μM DPCPX added sequentially every 8-10 min, maximum responses, N = 6

CCNC(=O)[C@H]1O[C@@H](n2cnc3c(N)nc(NCCc4ccc(CCC(=O)O)cc4)nc32)[C@H](O)[C@@H]1O [CGS-21680, 2-p-(2-carboxy-ethyl)phenethyl-amino-5'-N-ethylcarboxamido-adenosine]
effect on -dL/dtmax (rat ventricular myocytes; CGS-21680, Table 4 concentrations): did not affect
contractility variables compared to 1 μM CGS-21680 in the absence of DPCPX (rat ventricular myocytes; CGS-21680 at 1 μM in the presence of 0.2 μM DPCPX): no further increases
EC50 (rat ventricular myocytes; Rattus norvegicus, Ventricular myocyte, read-out: EC50 for +dL/dtmax): 13.2 ± 5.6 nM
EC50 (rat ventricular myocytes; Rattus norvegicus, Ventricular myocyte, read-out: EC50 for DS): 26 ± 5.4 nM
EC50 (rat ventricular myocytes; Rattus norvegicus, Ventricular myocyte, read-out: EC50 for LC): 6.1 ± 2 nM
EC50 (rat ventricular myocytes; Rattus norvegicus, Ventricular myocyte, read-out: EC50 for TPS): 48.2 ± 6.7 nM
EC50 (rat ventricular myocytes; Rattus norvegicus, Ventricular myocyte, read-out: EC50 for TR): 28.9 ± 8.7 nM
activation at 0.1 µM (rat ventricular myocytes; [2]): 27%
activation at 0.1 µM (rat ventricular myocytes; Rattus norvegicus, Ventricular myocyte, read-out: increase in DS): 32%
activation at 0.1 µM (rat ventricular myocytes; [3]): 28%
activation at 0.01 µM (rat ventricular myocytes; [4]): 11%
activation at 0.1 µM (rat ventricular myocytes; [4]): 30%
activation at 0.01 µM (rat ventricular myocytes; [5]): 12%
activation at 0.1 µM (rat ventricular myocytes; [5]): 22%
+dL/dtmax, maximal rate of shortening (rat ventricular myocytes; [6]): 158 ± 14 μm/msec
-dL/dtmax, maximal rate of relaxation (rat ventricular myocytes; [6]): 108 ± 16 μm/msec
DS, duration of shortening (rat ventricular myocytes; [6]): 404 ± 17 ms
LC, maximum length change (shortening) with contraction (rat ventricular myocytes; [6]): 22 ± 2 μm
TPS, time-to-peak shortening (rat ventricular myocytes; [6]): 156 ± 3 ms
TR, time to 75% relaxation (rat ventricular myocytes; [6]): 322 ± 12 ms
+dL/dtmax, maximal rate of shortening (rat ventricular myocytes; [7]): 187 ± 13 μm/msec
-dL/dtmax, maximal rate of relaxation (rat ventricular myocytes; [7]): 127 ± 13 μm/msec
DS, duration of shortening (rat ventricular myocytes; [7]): 460 ± 18 ms
LC, maximum length change (shortening) with contraction (rat ventricular myocytes; [7]): 26 ± 3 μm
TPS, time-to-peak shortening (rat ventricular myocytes; [7]): 192 ± 4 ms
TR, time to 75% relaxation (rat ventricular myocytes; [7]): 397 ± 14 ms
+dL/dtmax, maximal rate of shortening (rat ventricular myocytes; [8]): 188 ± 11 μm/msec
-dL/dtmax, maximal rate of relaxation (rat ventricular myocytes; [8]): 121 ± 15 μm/msec
DS, duration of shortening (rat ventricular myocytes; [8]): 458 ± 12 ms
LC, maximum length change (shortening) with contraction (rat ventricular myocytes; [8]): 24 ± 2 μm
TPS, time-to-peak shortening (rat ventricular myocytes; [8]): 183 ± 5 ms
TR, time to 75% relaxation (rat ventricular myocytes; [8]): 390 ± 13 ms
+dL/dtmax, maximal rate of shortening (rat ventricular myocytes; [9]): 183 ± 14 μm/msec
-dL/dtmax, maximal rate of relaxation (rat ventricular myocytes; [9]): 126 ± 12 μm/msec
DS, duration of shortening (rat ventricular myocytes; [9]): 431 ± 14 ms
LC, maximum length change (shortening) with contraction (rat ventricular myocytes; [9]): 23 ± 2 μm
TPS, time-to-peak shortening (rat ventricular myocytes; [9]): 169 ± 3 ms
TR, time to 75% relaxation (rat ventricular myocytes; [9]): 361 ± 12 ms
+dL/dtmax, maximal rate of shortening (rat ventricular myocytes; [10]): 162 ± 13 μm/msec
-dL/dtmax, maximal rate of relaxation (rat ventricular myocytes; [10]): 125 ± 11 μm/msec
DS, duration of shortening (rat ventricular myocytes; [10]): 363 ± 15 ms
LC, maximum length change (shortening) with contraction (rat ventricular myocytes; [10]): 22 ± 2 μm
TPS, time-to-peak shortening (rat ventricular myocytes; [10]): 144 ± 4 ms
TR, time to 75% relaxation (rat ventricular myocytes; [10]): 334 ± 10 ms
+dL/dtmax, maximal rate of shortening (rat ventricular myocytes; [11]): 192 ± 11 μm/msec
-dL/dtmax, maximal rate of relaxation (rat ventricular myocytes; [11]): 122 ± 12 μm/msec
DS, duration of shortening (rat ventricular myocytes; [11]): 486 ± 15 ms
LC, maximum length change (shortening) with contraction (rat ventricular myocytes; [11]): 25 ± 2 μm
TPS, time-to-peak shortening (rat ventricular myocytes; [11]): 190 ± 4 ms
TR, time to 75% relaxation (rat ventricular myocytes; [11]): 392 ± 13 ms
EC50 (rat ventricular myocytes; read-out: EC50 for the contractile variables (length change, duration of shortening, time to peak shortening, time to 75% relaxation, +dL/dtmax), range over the five variables): 6 to 48 nM
increase in cyclase activity ([1]; CGS-21680 in the presence of 0.1 μM DPCPX): 49%
EC50 ([1]; in the presence of 0.1 μM DPCPX, read-out: EC50 for increase of adenylyl cyclase): 260 ± 80 nM
adenylyl cyclase response ([1]; no DPCPX, activating at 1-10 μM, reducing this activation at 0.1-1 mM): biphasic response

CC(C)NCC(O)c1ccc(O)c(O)c1 (stereo not shown) [ISO, isoproterenol]
decrease in TR (rat ventricular myocytes; [12]): 10%
increase in +dL/dtmax (rat ventricular myocytes; [12]): 70%
increase in -dL/dtmax (rat ventricular myocytes; [12]): 93%
increase in LC (rat ventricular myocytes; [12]): 44%
inhibition at 0.2 µM (rat ventricular myocytes; Rattus norvegicus, Ventricular myocyte, read-out: decrease in DS): 30%
inhibition at 0.2 µM (rat ventricular myocytes; Rattus norvegicus, Ventricular myocyte, read-out: decrease in TPS): 14%
inhibition at 0.2 µM (rat ventricular myocytes; Rattus norvegicus, Ventricular myocyte, read-out: decrease in TR): 39%
activation at 0.2 µM (rat ventricular myocytes; [2]): 63%
activation at 0.2 µM (rat ventricular myocytes; Rattus norvegicus, Ventricular myocyte, read-out: increase in -dL/dtmax): 100%
activation at 0.2 µM (rat ventricular myocytes; [3]): 61%
+dL/dtmax, maximal rate of shortening (rat ventricular myocytes; [13]): 260 ± 13 μm/msec
-dL/dtmax, maximal rate of relaxation (rat ventricular myocytes; [13]): 180 ± 17 μm/msec
DS, duration of shortening (rat ventricular myocytes; [13]): 263 ± 16 ms
LC, maximum length change (shortening) with contraction (rat ventricular myocytes; [13]): 29 ± 2 μm
TPS, time-to-peak shortening (rat ventricular myocytes; [13]): 103 ± 4 ms
TR, time to 75% relaxation (rat ventricular myocytes; [13]): 210 ± 8 ms
increase in adenylyl cyclase activity [1, 12]: 23%
increase in adenylyl cyclase activity ([1]; ISO at 0.1 μM, in the absence of PIA): 88%
ISO-induced increase in adenylyl cyclase activity ([1]; ISO at 0.1 μM, with PIA and DPCPX at 0.1 μM): 70%

Source: patent publication US5629298A, “Adenosine as a positive inotrop in the compromised heart” (University of Massachusetts Medical Center, priority 1995, dated 1997)
